According to paper PMC10077444, “Evaluation of In Vivo Biological Activity Profiles of Isoindole-1,3-dione Derivatives: Cytotoxicity, Toxicology, and Histopathology Studies” (ACS Omega, 2023):
“And” between values parts separate entries of the source, which are not always exact repeats. Equal values may be shown once.

Columns and labels:
[1] = 28 day subacute toxicity study, weight change
[2] = system: CD1 mice; settings: in vivo
[3] = system: A549-Luc lung cancer cells; test: In vivo xenograft tumor model, tumor size by IVIS imaging; parameters: species or system nude mice; settings: for tumor size: individual nude mice, Tnd = tumor not detected, Ex = dead; for tumor outcome after treatment: A549-Luc xenograft nude mice, IVIS imaging; for tumor size initially: before treatment, individual nude mice (1)-(5)
Method: Luc cell line (A549-Luc cell), which has luciferase activity, was used to determine the cancer treatment potential of compounds 3 and 4 for in vivo experiments. Cells were cultured in DMEM Ham’s F12 [10% FBS, 1% L-glutamine, 1% gentamicin, and 1 mM 4-(2-hydroxyethyl)-1-piperazineethanesulfonic acid] broth in a CO2 incubator set at 37 °C. Sufficient stocks were prepared by passaging the cells twice a week, and cells that actively proliferated in the logarithmic phase were used in the tests.
Approval for monitoring the cancer treatment potential of the synthesized structures in vivo conditions was taken by the Animal Ethics Committee of Ege University on 24.01.2018 with the number 2018-015. Male atypical nude mice, 6–8 weeks old, were used for in vivo xenograft tumor models. […] For the purpose of xenograft administration, nude mice were injected subcutaneously with 100 μL of 5 × 10^6 A549-Luc cell suspension. The presence of cancer after cell administration to nude mice was followed by imaging with an IVIS device. In order to monitor tumor formation and tumor volume detection, luciferin [Biovision Inc., USA; 12 mg/mL in phosphate-buffered saline (PBS)] was injected intraperitoneally followed by visualization with IVIS 5 min later. When tumor volume reaches about 2000 mm^3, cancerous nudes are divided into three groups: the control group, 3 group, and 4 group. Grouping was made as 3–5 animals in each group. The following procedures were prepared according to the groups, and then they were implemented. In addition, the weights of nude mice were regularly checked and recorded.
Compound 3(Y) group: Compound 3(Y) was prepared in DMSO at a concentration of 200 μM, and 20 μL was administered via the tail vein in three doses a week.
Compound 4(X) group: Compound 4(X) was prepared in DMSO at a concentration of 200 μM, and 20 μL was given three doses a week through the tail vein.
Male atypical nude mice aged 6–8 weeks are commonly used in in vivo xenograft tumor models. A549-luc lung cancer cells were injected into nude mice in all three groups, and tumor growth was induced with a xenograft model. For xenograft administration, 100 μL of 5 × 10^6 A549-luc cell suspension was injected subcutaneously into nude mice. After cell application to nude mice, it was determined whether there was cancer or not by imaging with the IVIS device. After the cancer groups were formed, the treatment phase was started. Compound 4(X) substance, compound 3(Y), and cancer control groups were formed, five in each group. Each prepared sample was given to the animals by tail vein administration, three doses (as described in Section 2.3) per week, and the IVIS images taken at 5 min after luciferin (200 μL of 12 mg/mL stock administered […]) at certain time intervals were evaluated. Although no tumor was detected on the 15th day after cell implantation, the treatment was continued for two more weeks and whether the tumor recurred or not was determined by IVIS imaging.

[4] = 7 days, 200 μM, 20 μL tail vein, three doses a week

With `CC(=O)O[C@H]1C=C[C@H](OC(C)=O)[C@H]2C(=O)N(Cc3ccccc3)C(=O)[C@H]21` [compound 3] the “Weight, group average” value ([1]; 1st dose (200 μM) female, 7d) was 26.732 G, the “Weight, group average” value ([1]; 1st dose (200 μM) female, 14d) was 27.624 G and the “Weight, group average” value ([1]; 1st dose (200 μM) female, 21d) was 26.9 G. The “Weight, group average” value ([1]; 1st dose (200 μM) female, 28d) was 26.61 G, the “Weight, group average” value ([1]; 1st dose (200 μM) female, initial) was 26.516 G and the “Weight, group average” value ([1]; 1st dose (200 μM) male, 7d) was 34.102 G. For the same compound, the “Weight, group average” value ([1]; 1st dose (200 μM) male, 14d) was 35.088 G, the “Weight, group average” value ([1]; 1st dose (200 μM) male, 21d) was 34.89 G and the “Weight, group average” value ([1]; 1st dose (200 μM) male, 28d) was 35.932 G. For the same compound, the “Weight, group average” value ([1]; 1st dose (200 μM) male, initial) was 33.35 G, the “Weight, group average” value ([1]; 2nd dose (100 μM) female, 7d) was 27.582 G and the “Weight, group average” value ([1]; 2nd dose (100 μM) female, 14d) was 27.204 G. For the same compound, the “Weight, group average” value ([1]; 2nd dose (100 μM) female, 21d) was 27.848 G, the “Weight, group average” value ([1]; 2nd dose (100 μM) female, 28d) was 28.604 G and the “Weight, group average” value ([1]; 2nd dose (100 μM) female, initial) was 27.71 G. For the same compound, the “Weight, group average” value ([1]; 2nd dose (100 μM) male, 7d) was 32.196 G, the “Weight, group average” value ([1]; 2nd dose (100 μM) male, 14d) was 33.33 G and the “Weight, group average” value ([1]; 2nd dose (100 μM) male, 21d) was 33.42 G. For the same compound, the “Weight, group average” value ([1]; 2nd dose (100 μM) male, 28d) was 34.952 G, the “Weight, group average” value ([1]; 2nd dose (100 μM) male, initial) was 32.388 G and the “Weight, group average” value ([1]; 3rd dose (50 μM) female, 7d) was 23.104 G. The “Weight, group average” value ([1]; 3rd dose (50 μM) female, 14d) was 23.97 G, the “Weight, group average” value ([1]; 3rd dose (50 μM) female, 21d) was 24.27 G and the “Weight, group average” value ([1]; 3rd dose (50 μM) female, 28d) was 25.092 G. The “Weight, group average” value ([1]; 3rd dose (50 μM) female, initial) was 24.338 G, the “Weight, group average” value ([1]; 3rd dose (50 μM) male, 7d) was 35.528 G and the “Weight, group average” value ([1]; 3rd dose (50 μM) male, 14d) was 36.106 G. For the same compound, the “Weight, group average” value ([1]; 3rd dose (50 μM) male, 21d) was 36.43 G, the “Weight, group average” value ([1]; 3rd dose (50 μM) male, 28d) was 38.348 G and the “Weight, group average” value ([1]; 3rd dose (50 μM) male, initial) was 35.076 G. The “cardiac muscle: increase in the connective tissue between the muscle fibers” value ([2]; both, CD1, mouse, 28 day) was “higher level compared to the 4 groups”, the “cardiac muscle: discus intercalaris” value ([2]; mouse) was “moderate/high level of erasure” and the “kidney: severity of histopathological findings, compounds compared” value ([2]; mouse) was “more severe”. For the same compound, the “liver: severity of histopathological findings, compounds compared” value ([2]; mouse) was “more severe”, the tumor size [3, 4] was “Tnd” and the tumor size ([3]; 15 days) was “Tnd”. The tumor size ([3]; 45 days) was “Tnd”, the “tumor outcome after treatment” value [3] was “completely destroyed” and the tumor size initially [3] was 404.93 mm^3 and 301.26 mm^3 and 424.93 mm^3 and 731.33 mm^3 and 600.97 mm^3.

In the case of `CC(=O)O[C@@H]1[C@@H]2C(=O)N(Cc3ccccc3)C(=O)[C@@H]2C=C[C@H]1Cl` [compound 4], the tumor size [3, 4] is reported as “Tnd ^a”, the tumor size ([3]; 15 days) is reported as “Tnd ^a and Ex” and the tumor size ([3]; 45 days) is reported as “Tnd ^a and Ex”. For the same compound, the “tumor outcome after treatment” value [3] was “completely destroyed” and the tumor size initially [3] was 570.91 mm^3 and 403.71 mm^3 and 482.52 mm^3 and 1518.02 mm^3 and 1124.09 mm^3.
